Test results reported in PMC9182007, “Statistical Methods in the Study of Protein Binding and Its Relationship to Drug Bioavailability in Breast Milk” (Molecules, 2022).
Like-named read-outs stand apart in the source and are kept apart here.

Key:
[1] = target: T1, bovine serum albumin (BSA) (Bos taurus, UniProt P02769); assay: NP TLC on plates impregnated with bovine serum albumin; assay type: binding; details: for NP (Rf, BSA-impregnated NP plate): Table S3, NP plate impregnated with 2 mg/mL BSA, pH 7.4 mobile phase; for NP (Rf value from the NP plate impregnated with 2 mg/mL BSA solution): Table S8, external group
T1 construct: purchased Sigma Aldrich

[2] = target: T1, bovine serum albumin (BSA); assay: RP TLC on plates impregnated with bovine serum albumin; assay type: binding; details: for RP (Rf, BSA-impregnated RP plate): Table S4, RP plate impregnated with 2 mg/mL BSA, pH 7.4 mobile phase
[3] = NP TLC on non-impregnated control plates; assay type: physicochemical; details: for CNP (Rf, control NP plate): Table S3, non-impregnated NP plate, acetonitrile/acetate buffer pH 7.4/methanol 60:20:20; for CNP (Rf value from the non-impregnated NP plate, control): Table S8, external group
Experimental: (§1) For TLC chromatography, glass plates 20 × 20 cm from Merck, covered with silica gel with the addition of a fluorescent indicator, were used. Normal phase (NP) plates were used with standard Merck TLC Silica gel 60 F254 plates, while in reverse phase (RP) silanized plates RP-2: Merck TLC Silica gel 60 RP-2 F254 were used.
(§2) Normal and reversed phase thin layer chromatography (NP TLC and RP TLC respectively) was performed using silica-gel-coated glass plates. Half of them were covered with 2 mg/mL bovine serum albumin solution and half remained pure.
(§3) The mobility of the compounds was also determined on the plates with no protein as a modifier. […] The acetate buffer (20 mM) was prepared by dissolving 1.54 g of ammonium acetate in 1 L of distilled water. The pH was then adjusted with a concentrated ammonia solution using a pH meter. The plates were developed in standard, vertical chromatographic chambers, each time using 100 mL of the mobile phase, after the chamber was previously saturated with solvent vapors for approximately 1 h.
(§4) The unfolded-protein-impregnated plates and the control plates were scanned with a Desaga CD 60 densitometer. The values of the delay factor (Rf) were collected, i.e., the ratio of the distance traveled by the substance to be analyzed to the distance traveled through the front of the mobile phase. […] The experiment was repeated (for both BSA-coated and control plates) and the Rf values pooled are the mean of both series of experiments.

[4] = RP TLC on non-impregnated control plates; assay type: physicochemical; details: for CRP (Rf, control RP plate): Table S4, non-impregnated RP plate, acetonitrile/acetate buffer pH 7.4/methanol 60:20:20
Experimental: as §1, §2, §3, §4

[5] = HPLC on immobilized artificial membrane column (HPLCIAM); assay type: physicochemical; details: for log k IAM: Table S5, IAM column, pH 7.4; for k IAM: Table S5, retention factor, IAM column, phosphate buffer pH 7.4/acetonitrile 80:20; for kIAM / log kIAM: Table S9, external group
Experimental: High performance liquid chromatography was performed using immobilized human serum albumin column (HPLCHSA) and immobilized artificial membrane (HPLCIAM). HPLC was the source of the log k values (logarithm of retention factor), log kHSA and log kIAM.
The second experiment was performed using an immobilized artificial membrane (IAM) column. The assay was also performed on a Perkin Elmer Series 200 instrument connected to a UV-VIS spectrometer as the detector. The analytical wavelength was the same for all compounds, at 210 nm. […] The mobile phase was a mixture of 10 mM phosphate buffer pH 7.4 and acetonitrile in the ratio 80:20 (v/v). The phosphate buffer was obtained by dissolving the finished tablet in the appropriate amount of distilled water (1 tablet per 200 mL). In this case, it was not necessary to adjust the pH of the buffer using a pH meter.
The phase flow through the system was set to 0.5 mL/min as recommended by the column manufacturer. The solutions were delivered to the column using an autosampler syringe, the injection size was 10 µL.
The experiment was then repeated and the collected retention rates were the mean values of both series.

[6] = target: T2, human serum albumin (HSA) (Homo sapiens, UniProt P02768)
plasma protein = details: ref DrugBank [7], cited from earlier work
[7] = Table S1, coded 1/0; ref DrugBank [7]; cited from earlier work
[8] = target: T2, human serum albumin (HSA); assay: in vitro; details: immobilized hsa column, pH 7.4
[9] = Table S5, retention factor, HSA column, pH 7.4, 25 degrees Celsius
[10] = Table S1, plasma protein binding given as fraction
[11] = human, immobilized hsa column, pH 7.4
[12] = Table S6, external group (n = 38), given as fraction

T1 sequence (P02769 25-607): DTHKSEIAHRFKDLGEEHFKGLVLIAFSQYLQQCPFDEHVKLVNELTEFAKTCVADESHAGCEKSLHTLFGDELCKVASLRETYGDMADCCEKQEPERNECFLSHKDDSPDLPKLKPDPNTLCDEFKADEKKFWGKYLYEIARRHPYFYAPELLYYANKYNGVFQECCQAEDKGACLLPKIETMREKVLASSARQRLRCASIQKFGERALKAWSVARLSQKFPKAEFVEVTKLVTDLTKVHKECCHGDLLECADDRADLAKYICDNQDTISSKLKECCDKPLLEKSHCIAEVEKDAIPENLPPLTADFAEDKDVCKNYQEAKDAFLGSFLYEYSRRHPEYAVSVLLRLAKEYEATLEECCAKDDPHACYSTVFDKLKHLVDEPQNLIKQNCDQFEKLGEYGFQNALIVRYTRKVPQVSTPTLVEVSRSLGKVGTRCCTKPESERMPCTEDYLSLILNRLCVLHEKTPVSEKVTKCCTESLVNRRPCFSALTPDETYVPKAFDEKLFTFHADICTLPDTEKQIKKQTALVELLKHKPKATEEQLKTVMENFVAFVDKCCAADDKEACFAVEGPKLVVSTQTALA
T2 sequence (P02768 25-609): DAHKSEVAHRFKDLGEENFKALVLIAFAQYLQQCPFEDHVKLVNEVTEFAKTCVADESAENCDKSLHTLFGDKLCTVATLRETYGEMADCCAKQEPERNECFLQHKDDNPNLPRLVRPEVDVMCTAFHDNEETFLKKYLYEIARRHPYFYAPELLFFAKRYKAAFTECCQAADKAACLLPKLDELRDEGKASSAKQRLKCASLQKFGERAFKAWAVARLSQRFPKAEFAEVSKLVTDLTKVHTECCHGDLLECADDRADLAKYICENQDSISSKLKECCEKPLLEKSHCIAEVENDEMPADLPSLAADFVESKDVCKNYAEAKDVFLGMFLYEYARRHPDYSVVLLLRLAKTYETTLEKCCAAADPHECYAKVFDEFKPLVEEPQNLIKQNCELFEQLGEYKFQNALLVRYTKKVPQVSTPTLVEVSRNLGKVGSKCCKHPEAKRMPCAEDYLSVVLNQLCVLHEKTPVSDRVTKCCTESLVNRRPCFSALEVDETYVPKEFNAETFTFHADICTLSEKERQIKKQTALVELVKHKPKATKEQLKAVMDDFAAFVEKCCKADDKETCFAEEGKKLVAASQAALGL

Row | Compound | NP (Rf, BSA-impregnated NP plate) [1] | RP (Rf, BSA-impregnated RP plate) [2] | CNP (Rf, control NP plate) [3] | CRP (Rf, control RP plate) [4] | log k IAM [5] | k IAM [5] | k HSA [6, 9] | PB (plasma protein; [10]) | CNS+/- [7] | chromatographic logD [8] | also measured
1 | CC(C)NCC(O)COc1ccc(COCCOC(C)C)cc1 (centres unmarked) [bisoprolol] | 0.66 | 0.56 | 0.67 | 0.57 | 0.83 | 6.74 | 1.07 | 0.3 | 0 |  | 
2 | CN1CCN(C2=Nc3cc(Cl)ccc3Nc3ccccc32)CC1 [clozapine] | 0.46 |  | 0.45 |  | 1.71 | 50.94 | 6.84 |  |  | 0.84 | 
3 | CCOc1ccc(/C=C2\NCCc3cc(OCC)c(OCC)cc32)cc1OCC [drotaverine] | 0.59 | 0.58 | 0.61 | 0.55 | 1.49 | 31.24 | 1.91 |  | 1 |  | log k HSA [6, 11]: 0.28
4 | CNCC[C@H](Oc1cccc2ccccc12)c1cccs1 [duloxetine] |  |  |  |  |  |  |  |  |  | 0.91 | kIAM [5]: 2.84; log kIAM [5]: 0.45; kHSA [6]: 8.16; PB (plasma protein; [12]): 0.90
5 | NC(N)=Nc1nc(CSCCC(N)=NS(N)(=O)=O)cs1 [famotidine] | 0.71 | 0.99 | 0.70 | 0.98 |  |  | 0.99 |  |  | 0 | 
6 | NCC1(CC(=O)O)CCCCC1 [gabapentin] |  |  |  |  |  |  |  |  |  | -0.84 | kIAM [5]: 1.70; log kIAM [5]: 0.23; kHSA [6]: 0.15; PB (plasma protein; [12]): 0.03
7 | CC(=O)OCC(=O)[C@@]1(O)CC[C@H]2[C@@H]3CCC4=CC(=O)CC[C@]4(C)[C@H]3[C@@H](O)C[C@@]21C [hydrocortisone acetate] | 0.96 |  | 0.96 |  | 0.45 | 2.82 | 0.66 | 0.95 |  | -0.18 | 
8 | Cc1cc2c(s1)Nc1ccccc1N=C2N1CCN(C)CC1 [olanzapine] |  |  |  |  | 1.31 | 20.31 |  |  |  | 0.68 | k HSA ([6]; pH 7.4): 4.83
9 | COc1ccnc(C[S+]([O-])c2nc3ccc(OC(F)F)cc3[nH]2)c1OC (centres unmarked) [pantoprazole] | 0.92 | 0.83 | 0.93 | 0.85 | 0.34 | 2.19 | 2.09 | 0.98 | 0 |  | log k HSA [6, 11]: 0.32
10 | CCC[C@H](N[C@@H](C)C(=O)N1[C@H](C(=O)O)C[C@@H]2CCCC[C@@H]21)C(=O)OCC [perindopril] | 0.46 | 0.58 | 0.47 | 0.57 | -0.76 | 0.18 | 0.49 | 0.15 | 0 |  | log k HSA [6, 11]: -0.31
11 | CC(C)NCC(O)COc1cccc2[nH]ccc12 (centres unmarked) [pindolol] | 0.52 |  | 0.53 |  | 0.78 | 6.09 | 1.65 | 0.4 |  | 0.22 | 
12 | CC(C)C[C@H](CN)CC(=O)O [pregabalin] |  |  |  |  |  |  |  |  |  | -0.87 | kIAM [5]: 1.65; log kIAM [5]: 0.22; kHSA [6]: 0.14; PB (plasma protein; [12]): 0.00
13 | CC(CN1c2ccccc2Sc2ccccc21)N(C)C (centres unmarked) [promethazine] | 0.42 | 0.47 | 0.43 | 0.49 | 1.17 | 14.96 | 5.35 | 0.93 | 1 |  | log k HSA ([6]; Table S5, HSA, pH 7.4): 0.73
14 | OCCOCCN1CCN(C2=Nc3ccccc3Sc3ccccc32)CC1 [quetiapine] | 0.68 | 0.69 | 0.68 | 0.73 | 1.23 | 17.02 | 2.48 | 0.83 | 1 |  | log k HSA [6, 11]: 0.39
15 | Cc1nc2n(c(=O)c1CCN1CCC(c3noc4cc(F)ccc34)CC1)CCCC2 [risperidone] |  |  |  |  | 0.68 | 4.83 |  |  |  | 0.32 | k HSA ([6]; pH 7.4): 2.11
16 | CCCc1nc2c(C)cc(-c3nc4ccccc4n3C)cc2n1Cc1ccc(-c2ccccc2C(=O)O)cc1 [telmisartan] | 0.90 | 0.85 | 0.90 | 0.87 | 0.67 | 4.68 |  | 0.995 | 1 |  | 
17 | CC(C)(C)NC[C@H](O)COc1nsnc1N1CCOCC1 [timolol] |  |  |  |  |  |  |  |  |  |  | NP (Rf value from the NP plate impregnated with 2 mg/mL BSA solution) [1]: 0.32; RP (Rf value from the RP plate impregnated with 2 mg/mL BSA solution) ([2]; Table S8, external group): 0.97; CNP (Rf value from the non-impregnated NP plate, control) [3]: 0.34; CRP (Rf value from the non-impregnated RP plate, control) ([4]; Table S8, external group): 0.97; kIAM [5]: 2.88; log kIAM [5]: 0.46; kHSA ([6]; Table S9, external group): 0.13; PB (plasma protein; [12]): 0.10
18 | CCS(=O)(=O)CCn1c([N+](=O)[O-])cnc1C [tinidazole] |  |  |  |  |  |  |  |  |  | -0.92 | NP (Rf value from the NP plate impregnated with 2 mg/mL BSA solution) [1]: 0.88; CNP (Rf value from the non-impregnated NP plate, control) [3]: 0.89; kIAM [5]: 2.00; log kIAM [5]: 0.30; kHSA ([6]; Table S9, external group): 0.12; PB (plasma protein; [12]): 0.12
19 | Cc1ccc(O)c([C@H](CCN(C(C)C)C(C)C)c2ccccc2)c1 [tolterodine] |  |  |  |  | -0.68 | 0.21 |  |  |  | 0.46 | k HSA ([6]; pH 7.4): 2.9
20 | CCN(Cc1ccncc1)C(=O)C(CO)c1ccccc1 (centres unmarked) [tropicamid] | 0.86 | 0.83 | 0.85 | 0.83 | 0.03 | 1.06 | 0.15 | 0.45 | 1 |  | log k HSA ([6]; Table S5, HSA, pH 7.4): -0.82
21 | COc1ccc(C(CN(C)C)C2(O)CCCCC2)cc1 (centres unmarked) [venlafaxine] |  |  |  |  | 0.92 | 8.25 |  | 0.27 |  | 0.02 | k HSA ([6]; pH 7.4): 1.05
22 | CN(C)CCc1c[nH]c2ccc(C[C@H]3COC(=O)N3)cc12 [zolmitriptane] | 0.29 | 0.86 | 0.31 | 0.86 | 0.52 | 3.30 | 1.7 | 0.25 |  |  | log k HSA ([6]; Table S5, HSA, pH 7.4): 0.23
